Test results as given in patent US20190380941A1, “COMPOSITION COMPRISING A TRUFFLE EXTRACT AND NEOHESPERIDIN DIHYDROCHALCONE” (L'OREAL, priority 2016, published 2019).

Test system: filaggrin
Test: Filaggrin expression in normal human keratinocytes (NHEK), in-situ immunolabelling
Type: cell-based
Details: 72 hours incubation; for Mean filaggrin (AU): fluorescence intensity relative to number of cells, control 12261; for Mean filaggrin (AU) / % relative to the control (filaggrin): truffle extracts 4.5·10^−3% by weight of active material, Neohesperidin DHC 0.3 mg/ml, CaCl2 1.5 mM; for increase of filaggrin protein expression relative to the control: same concentrations as in the table, change versus control; for % relative to the control (filaggrin): control = 100
Source text: The in vitro effect of the combination of neohesperidin dihydrochalcone (neohesperidin DHC) and an extract of black (Périgord) truffle (Tuber melanosporum) and/or an extract of white (summer) truffle (Tuber aestivum) on keratinocyte differentiation is studied. The expression and the location of the marker of filaggrin differentiation are especially studied in keratinocytes in culture which thus makes it possible to evaluate the ability of these combinations to increase the differentiation of these cells. The culture medium is: Keratinocyte-SFM supplemented with: • 0.25 ng/ml Epidermal Growth Factor (EGF); • 25 μg/ml pituitary extract (PE); • 25 μg/ml Gentamicin; The test medium is Keratinocyte-SFM supplemented with 25 μg/ml Gentamicin. The keratinocytes were seeded into 96-well plates and cultured in culture medium for 168 hours with renewal of the culture medium after 24 and 96 hours of incubation. […] All the experimental conditions were carried out in n=3, except the control condition which was carried out in n=6. After incubation, the medium was eliminated and the cells were rinsed, fixed and permeabilized. The cells were then labelled with the primary antibody (see Table A) directed against the protein of interest (filaggrin). […] At the same time, the nuclei of the cells were stained with Hoechst 33258 (bisbenzimide). [table] The image acquisition was carried out with an INCellAnalyzer™ 1000 (GE Healthcare) high-resolution imaging system. For each well, 10 digitized images were captured for each immunolabelling (×20 objective).

SMILES | Mean filaggrin (AU) | increase of filaggrin protein expression relative to the control | % relative to the control (filaggrin)
[Ca+2].[Cl-].[Cl-] [CaCl2, calcium chloride] | 74795 AU | +510% | 610%
COc1ccc(CCC(=O)c2c(O)cc(O[C@@H]3O[C@H](CO)[C@@H](O)[C@H](O)[C@H]3O[C@@H]3O[C@@H](C)[C@H](O)[C@@H](O)[C@H]3O)cc2O)cc1O [Neohesperidin DHC, 1-(4-((2-O-[6-Deoxy-α-L-mannopyranosyl]-β-D-glucopyranosyl)oxy)-2,6-dihydroxyphenyl)-3-[3-hydroxy-4-methoxyphenyl]-1-propanone] | 18840 AU | +54% | 154%
